Experimental data from publication PMC9662648 (Journal of the American Chemical Society, 2022).

Test system: SARS-CoV-2 (USA-WA1/2020/NR-52281)
Assay: Live native virus infection of A549-hACE2 versus A549-hACE2/TMPRSS2 cells
Type: cell-based
Settings: virus 1 h, then compound

Row | SMILES | efficacy against live virus upon overexpression of TMPRSS2
1 | CCOC(=O)C=CC(CC1CCNC1=O)NC(=O)C(Cc1ccccc1)NC(=O)C(N)Cc1ccccc1 (centres unmarked) [SM141] | only a partial loss in efficacy
2 | CCOC(=O)C=CC(CC1CCNC1=O)NC(=O)C(Cc1ccccc1)NC(=O)C(Cc1ccc(F)cc1)NC(=O)OC(C)(C)C (centres unmarked) [SM142] | only a partial loss in efficacy
